Measurements as given in US20250381121A1, “COMPOSITION FOR PERSONAL CARE PRODUCTS” (VAGINAL BIOME SCIENCE, INC., priority 2024, published 2025).
Read-outs that look alike come from different tables or passages of the source.

Experiments:
[1] = tested on: herpes simplex virus (HSV-2); details: cited from earlier work
Lactobacillus crispatus = assay: Growth of Lactobacillus crispatus with UV-irradiated acemannan over 24 hours; format: cell-based
Method: Growth media contained Dextrose-Free Sharpe (MRS) broth and Lactobacilli MRS Agar or an equivalent. Extract of irradiated aloe vera was further added to the MRS broth at 0.1 and 0.3% (w/v). A predetermined number of bacteria was added to each of the prepared medium and cultured at 37° C. under a suitable condition for the organism to be tested (anaerobic conditions for L. crispatus and L. gasseri). A small portion of the culture was removed at 2, 4, 6, 8, 12, 14, 16, 18, and 24 hours of culture. At each time point, collected samples containing the growing organisms are plated to quantify the live cell number.
The cell growth of Lactobacillus crispatus and Lactobacillus gasseri was determined by serial dilutions and plating to determine the bacterial counts at designated time points during the 24-h study period. Plates were cultured at 37° C. under a suitable condition for the organism to be tested (anaerobic conditions for L. crispatus and L. gasseri). Bacterial colonies were quantified at 0 and 16 hours after incubation.
The experiments were carried out using the method described above for EXAMPLE 4. Lactobacillus crispatus was cultured in the presence of varying concentrations (0.1%, 0.2%, 0.3%, 0.5%) of UV-irradiated acemannan or a negative control over a 24-hour period. Bacterial growth was quantified at 10 time points (0-24 hours) using log-scaled CFU/mL equivalents.

CCCCCCCCCCCC(=O)OCC(O)CO (stereo not drawn) [glycerol monolaurate (GML), glycerol monolaurate]
susceptibility to herpes simplex virus (HSV-2) ([1]; 5% as a colloidal suspension in phosphate buffered saline, single exposure): markedly increased
susceptibility to herpes simplex virus (HSV-2) ([1]; 5% formulated in K-Y Warming Jelly, single exposure): markedly increased

CC(O)CO (stereo not drawn) [propylene glycol]
susceptibility to herpes simplex virus (HSV-2) ([1]; in vivo): markedly increased

acemannan
enhancement of L. crispatus growth compared with negative control (Lactobacillus crispatus; 0.3% acemannan, at 10 hours (p<0.05)): significant enhancement of growth
stimulation of L. crispatus growth over negative control (Lactobacillus crispatus; 0.5% acemannan, significant at 6, 8, 10 and 18 hours (p<0.05)): most robust and consistent stimulation

polyethylene glycol [polyethylene glycol (PEG-8)]
susceptibility to herpes simplex virus (HSV-2) ([1]; in vivo): markedly increased
